Measured values reported in patent US20050245543A1, “Histamine-3 receptor antagonists” (Pfizer Inc, priority 2004, published 2005).
Where a name gives a salt, the structure may show the parent alone.

How the values were obtained:
[1] = molecular target: T1, rat histamine H3 receptors (Rattus norvegicus, UniProt Q9QYN8); assay: Rat H3 binding (3H-N-methylhistamine displacement, rat frontal brain membranes); conditions: radioligand 1 nM 3H-N-methylhistamine, 1 hour incubation
T1 construct: Frozen rat frontal brain or frozen human post-mortem frontal brain is homogenized; from tissue; host or cells: rat frontal brain membranes
T1 sequence (Q9QYN8 whole entry): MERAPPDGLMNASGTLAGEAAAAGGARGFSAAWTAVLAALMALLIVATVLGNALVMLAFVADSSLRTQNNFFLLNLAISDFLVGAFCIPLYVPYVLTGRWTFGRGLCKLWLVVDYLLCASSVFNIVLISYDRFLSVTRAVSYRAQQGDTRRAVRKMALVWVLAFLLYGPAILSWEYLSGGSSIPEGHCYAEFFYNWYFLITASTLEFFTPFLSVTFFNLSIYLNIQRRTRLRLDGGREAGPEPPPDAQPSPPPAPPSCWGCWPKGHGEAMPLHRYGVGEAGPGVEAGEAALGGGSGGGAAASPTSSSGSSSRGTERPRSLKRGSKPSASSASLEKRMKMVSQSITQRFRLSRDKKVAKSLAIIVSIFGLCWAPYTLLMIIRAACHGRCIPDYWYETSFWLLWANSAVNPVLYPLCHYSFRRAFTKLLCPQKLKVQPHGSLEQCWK
Procedure: The in vitro affinity of the compounds in the present invention at the rat or human histamine H3 receptors can be determined according to the following procedure. Frozen rat frontal brain or frozen human post-mortem frontal brain is homogenized in 20 volumes of cold 50 mM Tris HCl containing 2 mM MgCl2 (pH to 7.4 at 4 degrees C.). The homogenate is then centrifuged at 45,000 G for 10 minutes. The supernatant is decanted and the membrane pellet re-suspended by Polytron in cold 50 mM Tris HCl containing 2 mM MgCl2 (pH to 7.4 at 4 degrees C.) and centrifuged again. The final pellet is re-suspended in 50 mM Tris HCl containing 2 mM MgCl2 (pH to 7.4 at 25 degrees C.) at a concentration of 12 mg/mL. Dilutions of compounds are made in 10% DMSO/50 mM Tris buffer (pH 7.4) (at 10×final concentration, so that the final DMSO concentration is 1%). Incubations are initiated by the addition of membranes (200 microliters) to 96 well V-bottom polypropylene plates containing 25 microliters of drug dilutions and 25 microliters of radioligand (1 nM final concentration ^3H—N-methylhistamine). After a 1 hour incubation, assay samples are rapidly filtered through Whatman GF/B filters and rinsed with ice-cold 50 mM Tris buffer (pH 7.4) using a Skatron cell harvester. Radioactivity is quantified using a BetaPlate scintillation counter.

Compound | melting point | Ki [1]
Cc1cc(C2CCCN2C)ccc1-c1ccc(CN2CCCCC2)cc1 (stereo not drawn) (as salt: HCl) [Example 79, 1-[2′-Methyl-4′-(1-methylpyrrolidin-2-yl)-biphenyl-4-ylmethyl]-piperidine] | 237.1 to 240 °C | –
CC(c1ccc(-c2ccc(-c3cncnc3)cc2F)cc1)N1CCCC1 (stereo not drawn) (as salt: HCl) [Example 94, 5-[2-Fluoro-4′-(1-pyrrolidin-1-ylethyl)-biphenyl-4-yl]-pyrimidine] | 179.9 to 181.3 °C | –
Cc1cc(C2CCCN2C)ccc1-c1ccc(CNCc2ccc(Cl)cc2)cc1 (stereo not drawn) (as salt: hydrochloride) [Example 96, (4-Chlorobenzyl)-[2′-methyl-4′-(1-methylpyrrolidin-2-yl)-biphenyl-4-ylmethyl]-amine] | 238.2 to 239.3 °C | –
CC(c1ccc(-c2ccc(-c3ccncc3)cc2)cc1)N1CCCC1 (racemic) [Example 1, (R)-(±)-4-[4′-(1-Pyrrolidin-1-ylethyl)-biphenyl-4-yl]-pyridine] | – | 39.4 nM
CC(c1ccc(-c2ccc(-c3cncnc3)cc2)cc1)N1CCCC1 (racemic) [Example 6, (±)-5-[4′-(1-Pyrrolidin-1-ylethyl)-biphenyl-4-yl]-pyrimidine] | – | 61.8 nM
CC(c1ccc(-c2ccc(-c3cncnc3)cc2)cc1)N1CCCC1 (racemic) [Example 7, (R)-(±)-5-[4′-(1-Pyrrolidin-1-ylethyl)-biphenyl-4-yl]-pyrimidine] | – | 22.7 nM
CC(c1ccc(-c2ccc(C3CCNCC3)cc2)cc1)N1CCCC1 (racemic) [Example 72, (R)-(±)-4-[4′-(1-Pyrrolidin-1-ylethyl)-biphenyl-4-yl]-piperidine] | – | 3.5 nM
CC(c1ccc(-c2ccc(C3CCNCC3)cc2)cc1)N1CCCC1 (racemic) [Example 74, (±)-4-[4′-(1-Pyrrolidin-1-yl-ethyl)-biphenyl-4-yl]-piperidine] | – | 10 nM
C[C@@H](c1ccc(-c2ccc(-c3ccncc3)cc2)cc1)N1CCCC1 [Example 2, (S)-(−)-4-[4′-(1-Pyrrolidin-1-ylethyl)-biphenyl-4-yl]-pyridine] | – | 137 nM
C[C@H](c1ccc(-c2ccc(-c3cccnc3)cc2)cc1)N1CCCC1 [Example 4] | – | 35.8 nM
COc1ncc(-c2ccc(-c3ccc([C@@H](C)N4CCCC4)cc3)cc2)c(OC)n1 [Example 5, (R)-2,4-Dimethoxy-5-[4′-(1-pyrrolidin-1-ylethyl)-biphenyl-4-yl]-pyrimidine] | – | 45 nM
CC(c1ccc(-c2ccc(-c3cccnc3)cc2)cc1)N1CCCC1 (stereo not drawn) [Example 9, 3-[4′-(1-Pyrrolidin-1-ylethyl)-biphenyl-4-yl]-pyridine] | – | 50 nM
CC(c1ccc(-c2ccc(-c3cncnc3)cc2)cc1)N1CCCC1 (stereo not drawn) [Example 20, 5-[4′-(1-Pyrrolidin-1-ylethyl)-biphenyl-4-yl]-pyrimidine] | – | 25.2 nM
CC(c1ccc(-c2ccc(-c3ccncc3)cc2)cc1)N1CCCC1 (stereo not drawn) [Example 24, 4-[4′-(1-Pyrrolidin-1-ylethyl)-biphenyl-4-yl]-pyridine] | – | 52 nM
CC(c1ccc(-c2ccc(-c3ccccc3C(=O)N(C(C)C)C(C)C)cc2)cc1)N1CCCC1 (stereo not drawn) [Example 28, 4″-(1-Pyrrolidin-1-ylethyl)-[1,1′;4′,1″]terphenyl-2-carboxylic acid diisopropylamide] | – | 13.6 nM
CC(c1ccc(-c2ccc(-c3ccc(S(C)(=O)=O)cc3)cc2)cc1)N1CCCC1 (stereo not drawn) [Example 35, 1-[1-(4-Methanesulfonyl-[1,1′;4′,1″]terphenyl-4″-yl)-ethyl]-pyrrolidine] | – | 22.7 nM
CC(c1ccc(-c2ccc(-c3ccncc3)cc2)cc1)N(C)C (stereo not drawn) [Example 39, Dimethyl-[1-(4′-pyridin-4-ylbiphenyl-4-yl)-ethyl]-amine] | – | > 140 nM
C[C@@H](c1ccc(-c2ccc(C3CCNCC3)cc2)cc1)N1CCCC1 [Example 73, (S)-(−)4-[4′-(1-Pyrrolidin-1-ylethyl)-biphenyl-4-yl]-piperidine] | – | 72.6 nM
C[C@H](c1ccc(-c2ccc(C3CCN(C)CC3)cc2)cc1)N1CCCC1 [Example 77, (R)-1-Methyl-4-[4′-(1-Pyrrolidin-1-ylethyl)-biphenyl-4-yl]-piperidine] | – | 24.3 nM
CCN1CCC(c2ccc(-c3ccc([C@@H](C)N4CCCC4)cc3)cc2)CC1 [Example 78, (R)-1-Ethyl-4-[4′-(1-pyrrolidin-1-ylethyl)-biphenyl-4-yl]-piperidine] | – | 21.3 nM
Cc1cc(C2CCCN2C)ccc1-c1ccc(CN2CCCCC2)cc1 (stereo not drawn) [Example 79, 1-[2′-Methyl-4′-(1-methylpyrrolidin-2-yl)-biphenyl-4-ylmethyl]-piperidine] | – | 13.9 nM
CC(c1ccc(-c2ccc(-c3cnc(O)nc3)cc2)cc1)N1CCCC1 (stereo not drawn) [Example 90, 5-[4′-(1-Pyrrolidin-1-ylethyl)-biphenyl-4-yl]-pyrimidin-2-ol] | – | 44 nM
CC(c1ccc(-c2ccc(-c3cnc(Cl)nc3)cc2)cc1)N1CCCC1 (stereo not drawn) [Example 91, 2-Chloro-5-[4′-(1-pyrrolidin-1-ylethyl)-biphenyl-4-yl]-pyrimidine] | – | 38 nM
COc1ncc(-c2ccc(-c3ccc(C(C)N4CCCC4)cc3)cc2)cn1 (stereo not drawn) [Example 92, 2-Methoxy-5-[4′-(1-pyrrolidin-1-ylethyl)-biphenyl-4-yl]-pyrimidine] | – | 42 nM
CC(c1ccc(-c2ccc(-c3cnc(N)nc3)cc2)cc1)N1CCCC1 (stereo not drawn) [Example 93, 5-[4′-(1-Pyrrolidin-1-ylethyl)-biphenyl-4-yl]-pyrimidin-2-ylamine] | – | 105 nM
CC(c1ccc(-c2ccc(-c3cncnc3)cc2F)cc1)N1CCCC1 (stereo not drawn) [Example 94, 5-[2-Fluoro-4′-(1-pyrrolidin-1-ylethyl)-biphenyl-4-yl]-pyrimidine] | – | 23 nM
Cc1cc(C2CCCN2C)ccc1-c1ccc(CNCc2ccc(Cl)cc2)cc1 (stereo not drawn) [Example 96, (4-Chlorobenzyl)-[2′-methyl-4′-(1-methylpyrrolidin-2-yl)-biphenyl-4-ylmethyl]-amine] | – | 14.7 nM
